Assays:
Settings in all cases: incubation time: 72 h
BT-474 [1] = test: normalised response (% of control), CellTox Green; higher = less cell death (100 = DMSO, 0 = benzethonium chloride kill control)
How it was run: (§1)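 Each entry is the normalised signal at a single concentration within a series. The series comprised 5 concentrations in 10-fold steps over a compound-specific 10,000-fold range, placed in 384-well plates into which breast cancer cell lines were seeded as 20 µl suspension and incubated 72 h. CellTox Green (485/520 nm) fluorescence and then CellTiter-Glo luminescence were read, with signals normalised per plate to 0.1 % DMSO (100) and a positive kill control (0).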

BT-549 [2] = test: as above
How it was run: as §1

CAL-120 [3] = test: as above
How it was run: as §1

CAL-148 [4] = test: as above
How it was run: as §1

CAL-51 [5] = test: as above
How it was run: as §1

CAL-85-1 [6] = test: as above
How it was run: as §1

DU-4475 [7] = test: as above
How it was run: as §1

HCC1143 [8] = test: as above
How it was run: as §1

HCC1599 [9] = test: as above
How it was run: as §1

HCC1937 [10] = test: as above
How it was run: as §1

HDQ-P1 [11] = test: as above
How it was run: as §1

Hs578T [12] = test: as above
How it was run: as §1

MCF-10A [13] = test: as above
How it was run: as §1

MDA-MB-231 [14] = test: as above
How it was run: as §1

MDA-MB-436 [15] = test: as above
How it was run: as §1

MDA-MB-453 [16] = test: as above
How it was run: as §1

MDA-MB-468 [17] = test: as above
How it was run: as §1

MFM-223 [18] = test: as above
How it was run: as §1

BT-474 [19] = test: normalised response (% of control), CellTiter-Glo; higher = more viable cells (100 = DMSO, 0 = benzethonium chloride kill control)
Description: (§2)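 DSRT, 72 h incubation, CellTox Green / CellTiter-Glo readout. Signal is normalised to DMSO and benzethonium chloride controls. Value is the normalised response at dose 3.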

BT-549 [20] = test: as above
Description: as §2

CAL-120 [21] = test: as above
Description: as §2

CAL-148 [22] = test: as above
Description: as §2

CAL-51 [23] = test: as above
Description: as §2

CAL-85-1 [24] = test: as above
Description: as §2

DU-4475 [25] = test: as above
Description: as §2

HCC1143 [26] = test: as above
Description: as §2

HCC1599 [27] = test: as above
Description: as §2

HCC1937 [28] = test: as above
Description: as §2

HDQ-P1 [29] = test: as above
Description: as §2

Hs578T [30] = test: as above
Description: as §2

MCF-10A [31] = test: as above
Description: as §2

MDA-MB-231 [32] = test: as above
Description: as §2

MDA-MB-436 [33] = test: as above
Description: as §2

MDA-MB-453 [34] = test: as above
Description: as §2

MDA-MB-468 [35] = test: as above
Description: as §2

MFM-223 [36] = test: as above
Description: as §2

SK-BR-3 = test: as above
Description: as §2

SMILES	normalised response (BT-474 [1]) [%]	normalised response (BT-549 [2]) [%]	normalised response (CAL-120 [3]) [%]	normalised response (CAL-148 [4]) [%]	normalised response (CAL-51 [5]) [%]	normalised response (CAL-85-1 [6]) [%]	normalised response (DU-4475 [7]) [%]	normalised response (HCC1143 [8]) [%]	normalised response (HCC1599 [9]) [%]	normalised response (HCC1937 [10]) [%]	normalised response (HDQ-P1 [11]) [%]	normalised response (Hs578T [12]) [%]	normalised response (MCF-10A [13]) [%]	normalised response (MDA-MB-231 [14]) [%]	normalised response (MDA-MB-436 [15]) [%]	normalised response (MDA-MB-453 [16]) [%]	normalised response (MDA-MB-468 [17]) [%]	normalised response (MFM-223 [18]) [%]	normalised response (BT-474 [19]) [%]	normalised response (BT-549 [20]) [%]	normalised response (CAL-120 [21]) [%]	normalised response (CAL-148 [22]) [%]	normalised response (CAL-51 [23]) [%]	normalised response (CAL-85-1 [24]) [%]	normalised response (DU-4475 [25]) [%]	normalised response (HCC1143 [26]) [%]	normalised response (HCC1599 [27]) [%]	normalised response (HCC1937 [28]) [%]	normalised response (HDQ-P1 [29]) [%]	normalised response (Hs578T [30]) [%]	normalised response (MCF-10A [31]) [%]	normalised response (MDA-MB-231 [32]) [%]	normalised response (MDA-MB-436 [33]) [%]	normalised response (MDA-MB-453 [34]) [%]	normalised response (MDA-MB-468 [35]) [%]	normalised response (MFM-223 [36]) [%]	normalised response (SK-BR-3) [%]
CNC(=O)c1cc(Oc2ccc(NC(=O)Nc3cc(C(C)(C)C)nn3-c3ccc4ncccc4c3)c(F)c2)ccn1 [Rebastinib] (10 nM)	98.3	107	101	84.8	101	113	101	86.8	98.2	94.3	57	106	95.4	105	85	98.2	70.1	103	102	109	105	105	90.6	98.7	109	104	98.3	102	107	104	114	92	106	97.1	94.7	96.8	101
O=C(O)C1(C(=O)O)CCC1.[NH2-].[NH2-].[Pt+2] [Carboplatin] (100 nM)	103	78.9	104	103	90.7	108	105	89.6	100	75.2	88.8	95.5	86.2	101	103	97.6	61.5	96.8	102	93	99.1	102	93.7	98	99.5	101	87.6	94.2	99	99.9	107	100	103	94.7	93.9	99.2	105
Nc1nc(F)nc2c1ncn2[C@@H]1O[C@H](CO)[C@@H](O)[C@@H]1O [Fludarabine] (100 nM)	99.6		101	107	109	101	105	119	108	116	101	99.5	98.4	116	101	108	131	104	106	102	101	107	94.1	101	106	102	122	98.3	98.8	107	113	119	101	120	113	111	108
C=CC(=O)N1CCC[C@@H](n2nc(-c3ccc(Oc4ccccc4)cc3)c3c(N)ncnc32)C1 [Ibrutinib] (10 nM)	96.3	87	98.7	84.5	112	95.8	101	114	107	118	107	93.2	63.2	110	100	77.9	92.8	100	104	99.8	106	109	113	99.5	100	105	105	94.2	89	106	102	108	103	87.3	98.4	110	67.4
Cc1ccc(-c2cc(C(F)(F)F)nn2-c2ccc(S(N)(=O)=O)cc2)cc1 [Celecoxib] (100 nM)	99.5	90.5	102	95.4	111	101	101	98.9	95.6	106	101	96.8	102	93.2	71.4	104	89.2	98.7	99	100	103	95.4	110	97.6	103	104	98.1	94	94.7	111	97.8	101	97.4	110	98.9	104	102
COc1cc2c(Oc3ccc4[nH]c(C)cc4c3F)ncnc2cc1OCCCN1CCCC1 [Cediranib] (10 nM)	96.3	104	95.1	105	109	90.9	97.7	101	113	119	108	111	88.3	106	103	107	138	106	103	113	103	108	92.7	107	104	102	88.5	99.5	100	110	97.9	105	101	107	104	107	104
Nc1ncn([C@H]2C[C@H](O)[C@@H](CO)O2)c(=O)n1 [Decitabine] (100 nM)	94.3		90.5	106	76	104	97.5	105	106	91.4	56.6	109	105	91.8	90.2	95.8	89.8	107	103	92.2	99.4	93.1	82.4	97.3	94.9	104	113	93.2	94.9	104	101	105	96.5	107	52.5	104	91.2
CC[C@@H]1C(=O)N(C)c2cnc(Nc3ccc(C(=O)NC4CCN(C)CC4)cc3OC)nc2N1C1CCCC1 [BI 2536] (10 nM)	78.1	-328	88.2		51.3	65.3	97.5	97.8	101	116	55.5	89.4	64.3	10.1	51.6	101	56.6	73	74.3	37	70.5	55.6	67.2	43.9	85.2	55.7	92.6	84.8	78.4	83.9	82.4	51.4	44.2	70.5	37.3	44.3	15.6
O=C(/C=C/c1cccnc1)NCCCCC1CCN(C(=O)c2ccccc2)CC1 [Daporinad] (10 nM)	95.6		100	96.1	112	105	101	58.3	101	101	105	21.9	96	95.4	93.7	105	106	84.7	97	102	56.2	115	115	44.6	30.4	45.2	4.73	42.5	74.4	18.4	41.6	91.5	105	21.1	1.06	5.44	103

From the supplement of paper PMC4862054
